Counter-ions that a name gives are not always drawn. Like-named read-outs stand apart in the source and are kept apart here.
Legend:
[1] = test system: Heterosigma akashiwo; assay: Effect of unsaturated higher fatty acids on viability of Heterosigma akashiwo (cytolysis); type: cell-based; conditions: 0.5 h
Protocol: Effect of the several unsaturated higher fatty acids on viability of Heterosigma akashiwo.
(§1) Heterosigma akashiwo was incubated in PES medium under 14 hr photoperiod (3000 lux) condition at 20° C. The effects of test compounds were examined on the plankton at exponential growth phase and the medium at the phase generally contained 7×10^4 cells/ml.
(§2) The unsaturated higher fatty acid was accurately weighed and dissolved in benzene. An aliquot of the solution was transferred in a 10 ml volumetric flask. The benzene was removed in vacuo and the residue was dissolved in 0.2 ml of ethanol. A PES medium was added bit by bit to make a 10 ml solution.
(§3) Each of 1 ml of the plankton medium was transferred to the wells of a multi-dish at the cell number of 7×10^4. After good conditions of the plankton were confirmed under an inverted microscope, 1 ml of graded levels of the test solution was mixed. At specified intervals, morphological examination was conducted under the microscope, and effect concentration (EC100 ) was defined as the minimum concentration at which all of the plankton tested were cytolyzed 30 min after introduction of a test material.

[2] = test system: Killifish (Oryzias latipes); assay: Acute toxicity of unsaturated higher fatty acids to killifish; type: in vivo; conditions: adult killifish, 48 hr, 25° C.
Protocol: Acute toxicity of the several unsaturated higher fatty acids.
Killifish (Oryzias latipes) at adult stage were acclimated to laboratory conditions in dechlorinated water. Fish were withheld from food for 24 hr prior to the test.
Graded levels of the compounds in 0.5 ml ethanol were added to glass vessels, and then mixed with 100 ml of dechlorinated fresh water. Five fish were introduced to the vessel and maintained for 48 hr at 25° C.
As a solvent control, 0.5% ethanol solution was used.

[3] = test system: Chaetoceros debile; assay: Effects of OTA on viability of plankton species; type: cell-based
Protocol: as §1, §2, §3
(§4) Effect of 6Z, 9Z, 12Z, 15Z-octadecateraeonic acid (OTA) on viability of several plankton species.
(§5) The test system was the same as in Experiment 1, except test concentration of 5 and 25 ppm and test duration of 48 hr.

[4] = test system: Chattonella antiqua; assay: Effects of OTA on viability of plankton species; type: cell-based
Protocol: as §1, §2, §3, §4, §5

[5] = test system: Chattonella marina; assay: Effects of OTA on viability of plankton species; type: cell-based
Protocol: as §1, §2, §3, §4, §5

[6] = test system: Chlamydomonas sp.; assay: Effects of OTA on viability of plankton species; type: cell-based
Protocol: as §1, §2, §3, §4, §5

[7] = test system: Cryptomonas sp.; assay: Effects of OTA on viability of plankton species; type: cell-based
Protocol: as §1, §2, §3, §4, §5

[8] = test system: Eutreptia sp.; assay: Effects of OTA on viability of plankton species; type: cell-based
Protocol: as §1, §2, §3, §4, §5

[9] = test system: Gymnodinium nagasakiense; assay: Effects of OTA on viability of plankton species; type: cell-based
Protocol: as §1, §2, §3, §4, §5

[10] = test system: Gymnodinium sanguineum; assay: Effects of OTA on viability of plankton species; type: cell-based
Protocol: as §1, §2, §3, §4, §5

[11] = test system: Hafniomonas reticulata; assay: Effects of OTA on viability of plankton species; type: cell-based
Protocol: as §1, §2, §3, §4, §5

[12] = test system: Heterocapsa triguetra; assay: Effects of OTA on viability of plankton species; type: cell-based
Protocol: as §1, §2, §3, §4, §5

[13] = test system: Heterosigma akashiwo; assay: Effects of OTA on viability of plankton species; type: cell-based
Protocol: as §1, §2, §3, §4, §5

[14] = test system: Nephroselmis sp.; assay: Effects of OTA on viability of plankton species; type: cell-based
Protocol: as §1, §2, §3, §4, §5

[15] = test system: Olisthodiscus luteus; assay: Effects of OTA on viability of plankton species; type: cell-based
Protocol: as §1, §2, §3, §4, §5

[16] = test system: Oltmannsiella sp.; assay: Effects of OTA on viability of plankton species; type: cell-based
Protocol: as §1, §2, §3, §4, §5

[17] = test system: Prorocentrum micans; assay: Effects of OTA on viability of plankton species; type: cell-based
Protocol: as §1, §2, §3, §4, §5

[18] = test system: Pterosperma cristatum; assay: Effects of OTA on viability of plankton species; type: cell-based
Protocol: as §1, §2, §3, §4, §5

[19] = test system: Pyraminonas sp.; assay: Effects of OTA on viability of plankton species; type: cell-based
Protocol: as §1, §2, §3, §4, §5

[20] = test system: Skeletonema costatum; assay: Effects of OTA on viability of plankton species; type: cell-based
Protocol: as §1, §2, §3, §4, §5

[21] = test system: Stephanopyris palmeriana; assay: Effects of OTA on viability of plankton species; type: cell-based
Protocol: as §1, §2, §3, §4, §5

[22] = test system: Cricosphaera roscoffensis; assay: Effects of OTA on viability of plankton species; type: cell-based; design: key: +: 100% cytolysis of planktons after 2 hr; ±: No cytolysis but no movement; -: No effect
Protocol: as §1, §2, §3, §4, §5

[23] = test system: Tetraselmis cordiformis; assay: Effects of OTA on viability of plankton species; type: cell-based; design: key: +: 100% cytolysis of planktons after 2 hr; ±: No cytolysis but no movement; -: No effect
Protocol: as §1, §2, §3, §4, §5

[24] = test system: marine dinoflagellates (Dinophyceae); assay: Algicidal activity against marine dinoflagellates; type: cell-based
[25] = minimum concentration at which all plankton cytolyzed 30 min after introduction, read-out: EC100

In the case of `CCCCC/C=C\C/C=C\C/C=C\CCCCC(=O)O` [γ-linolenic acid], the EC100 [1, 25] is reported as 25 µg/mL, the LC100 [2] is reported as greater than 50 ppm and the “Maximum no effect concentration” value [2] is reported as less than 40 ppm.

In the case of `CCCCCCCC/C=C\CCCCCCCC(=O)O` [oleic acid], the EC100 [1] is reported as 70 to 80 µg/mL.

For `CCC=CCC=CCC=CCC=CCC=CCCCC(=O)O` [5,8, 11, 14, 17-eicosapentaenoic acid], the EC100 [1, 25] was 2.5 µg/mL, the LC100 [2] was greater than 30 ppm and the “Maximum no effect concentration” value [2] was less than 25 ppm.

In the case of `CC/C=C\C/C=C\C/C=C\C/C=C\CCCCC(=O)O` [OTA, 6Z, 9Z, 12Z, 15Z-octadecatetraenoic acid], the EC100 [1, 25] is reported as 2.5 µg/mL, the Effect on viability ([3]; 5 ppm) is reported as “+ (100% cytolysis of planktons after 2 hr)” and the Effect on viability ([3]; 25 ppm) is reported as “+ (100% cytolysis of planktons after 2 hr)”. For the same molecule, the Effect on viability ([4]; 5 ppm) was “+ (100% cytolysis of planktons after 2 hr)”, the Effect on viability ([4]; 25 ppm) was “+ (100% cytolysis of planktons after 2 hr)” and the Effect on viability ([5]; 5 ppm) was “+ (100% cytolysis of planktons after 2 hr)”. For the same molecule, the Effect on viability ([5]; 25 ppm) was “+ (100% cytolysis of planktons after 2 hr)”, the Effect on viability ([6]; 5 ppm) was “+ (100% cytolysis of planktons after 2 hr)” and the Effect on viability ([6]; 25 ppm) was “+ (100% cytolysis of planktons after 2 hr)”. For the same molecule, the Effect on viability ([7]; 5 ppm) was “+ (100% cytolysis of planktons after 2 hr)”, the Effect on viability ([7]; 25 ppm) was “+ (100% cytolysis of planktons after 2 hr)” and the Effect on viability ([8]; 5 ppm) was “+ (100% cytolysis of planktons after 2 hr)”. For the same molecule, the Effect on viability ([8]; 25 ppm) was “+ (100% cytolysis of planktons after 2 hr)”, the Effect on viability ([9]; 5 ppm) was “+ (100% cytolysis of planktons after 2 hr)” and the Effect on viability ([9]; 25 ppm) was “+ (100% cytolysis of planktons after 2 hr)”. For the same molecule, the Effect on viability ([10]; 5 ppm) was “+ (100% cytolysis of planktons after 2 hr)”, the Effect on viability ([10]; 25 ppm) was “+ (100% cytolysis of planktons after 2 hr)” and the Effect on viability ([11]; 5 ppm) was “+ (100% cytolysis of planktons after 2 hr)”. The Effect on viability ([11]; 25 ppm) was “+ (100% cytolysis of planktons after 2 hr)”, the Effect on viability ([12]; 5 ppm) was “+ (100% cytolysis of planktons after 2 hr)” and the Effect on viability ([12]; 25 ppm) was “+ (100% cytolysis of planktons after 2 hr)”. For the same molecule, the Effect on viability ([13]; 5 ppm) was “+ (100% cytolysis of planktons after 2 hr)”, the Effect on viability ([13]; 25 ppm) was “+ (100% cytolysis of planktons after 2 hr)” and the Effect on viability ([14]; 5 ppm) was “+ (100% cytolysis of planktons after 2 hr)”. For the same molecule, the Effect on viability ([14]; 25 ppm) was “+ (100% cytolysis of planktons after 2 hr)”, the Effect on viability ([15]; 5 ppm) was “+ (100% cytolysis of planktons after 2 hr)” and the Effect on viability ([15]; 25 ppm) was “+ (100% cytolysis of planktons after 2 hr)”. For the same molecule, the Effect on viability ([16]; 5 ppm) was “+ (100% cytolysis of planktons after 2 hr)”, the Effect on viability ([16]; 25 ppm) was “+ (100% cytolysis of planktons after 2 hr)” and the Effect on viability ([17]; 5 ppm) was “+ (100% cytolysis of planktons after 2 hr)”. The Effect on viability ([17]; 25 ppm) was “+ (100% cytolysis of planktons after 2 hr)”, the Effect on viability ([18]; 5 ppm) was “+ (100% cytolysis of planktons after 2 hr)” and the Effect on viability ([18]; 25 ppm) was “+ (100% cytolysis of planktons after 2 hr)”. The Effect on viability ([19]; 5 ppm) was “+ (100% cytolysis of planktons after 2 hr)”, the Effect on viability ([19]; 25 ppm) was “+ (100% cytolysis of planktons after 2 hr)” and the Effect on viability ([20]; 5 ppm) was “+ (100% cytolysis of planktons after 2 hr)”. The Effect on viability ([20]; 25 ppm) was “+ (100% cytolysis of planktons after 2 hr)”, the Effect on viability ([21]; 5 ppm) was “+ (100% cytolysis of planktons after 2 hr)” and the Effect on viability ([21]; 25 ppm) was “+ (100% cytolysis of planktons after 2 hr)”. The Effect on viability ([22]; 5 ppm) was “±”, the Effect on viability ([22]; 25 ppm) was “±” and the Effect on viability ([23]; 5 ppm) was “±”. The Effect on viability ([23]; 25 ppm) was “±”, the LC100 [2] was greater than 25 ppm and the “Maximum no effect concentration” value [2] was less than 20 ppm. The algicidal activity [24] was “strong algicidal activity”.

With `CCCCC/C=C\C/C=C\C/C=C\C/C=C\CCCC(=O)O` [arachidonic acid] the EC100 [1] was 2.5 µg/mL.

In the case of `CCC=CCC=CCC=CCC=CCC=CCCCC(=O)O` [Na salt of 5, 8, 11, 14, 17-eicosapentaenoic acid], the LC100 [2] is reported as greater than 50 ppm and the “Maximum no effect concentration” value [2] is reported as less than 30 ppm.

Molecule `CCCCC/C=C\C/C=C\CCCCCCCC(=O)O` [linoleic acid] has an EC100 [1, 25] of 25 µg/mL.

In the case of `CC/C=C\C/C=C\C/C=C\CCCCCCCC(=O)[O-].[Na+]` [sodium linolenate], the LC100 [2] is reported as greater than 150 ppm and the “Maximum no effect concentration” value [2] is reported as less than 100 ppm.

Reference: patent publication US4840658A, “Algicidal composition” (Sumitomo Chemical Company, Limited, priority 1986, dated 1989)
